From patent US8735622B2, “Histone demethylase inhibitors and methods for using the same” (The Regents of the University of Colorado, a body corporate, priority 2011, dated 2014)

Tests used:
[1] = system: prolyl hydroxylases (PHDs); assay: Cellular HIF-1α level (prolyl hydroxylase specificity) in MCF7 cells; format: cell-based, human; conditions: 24 hours, methylstat up to 15 μM, DFO 150 μM, DMOG 1 and 2 mM
From the text: To assess the specificity of methylstat in vivo, another iron(II)- and α-ketoglutarate-dependent dioxygenases, prolyl hydroxylases (PHDs), was examined. PHDs have been reported to regulate normoxic inactivation of hypoxia-inducible factors (HIFs) by hydroxylating specific prolyl residues of HIFs. […] DMOG and DFO have been used to mimic hypoxia conditions by inhibiting PHDs in vivo. […] Similar results were also observed in HeLa cells (see FIG. 7).
Total lysates of cells were generated from the cells lysed in CelLytic M Cell Lysis (Sigma) with protease inhibitor cocktail (Sigma), mixed with 2×LSB buffer (100 mM Tris-HCl pH 6.8, 200 mM DTT, 4% SDS, 20% glycerol and 0.2% bromophenol blue) and boiled for 5 min before SDS-PAGE. BCA assay (Thermo) was applied for protein qualification.

[2] = system: H3K4me3 and H3K9me3 levels in KYSE150 cells; assay: Quantitative immunostaining assay of H3K4me3 and H3K9me3 in KYSE150 cells; format: cell-based, human; conditions: 2.5 μM, 48 h
Protocol: To quantify the cellular activity of methylstat, a quantitative image-based assay was used. […] The cellular effects of methylstat were also cell type-specific.
For quantified immunostaining experiments, KYSE150 or MCF7 cells were seeded in a 96-well plate at 10,000 cells per well and incubated at 37° C. for 24 hours. The medium was replaced and methylstat in DMSO was added at the concentration as indicated. After incubation for another 48 hours, immunostaining procedure was performed as described above using anti-H3K9me3 or anti-H3K4me3 primary antibody. Fluorescent images of cells were acquired by a Nikon Eclipse 90i fluorescence microscope and analyzed using the Cell Scoring analysis module of MetaMorph 7.0 software.

[3] = molecular target: T1, GST-JMJD2A(1-420) (Homo sapiens, UniProt O75164); assay: Fluorescence polarization (FP) binding assay, JMJD2A; conditions: 1 nM fluorophore, 2 h at room temperature, read-out: dissociation constant (Kd) to GST-JMJD2A(1-420)
T1 construct: Recombinant protein preparation of GASC1(1-420), JMJD2A (1-420) and LSD1 (full-length); made in house; host or cells: Escherichia coli BL-21
T1 sequence (O75164 1-420): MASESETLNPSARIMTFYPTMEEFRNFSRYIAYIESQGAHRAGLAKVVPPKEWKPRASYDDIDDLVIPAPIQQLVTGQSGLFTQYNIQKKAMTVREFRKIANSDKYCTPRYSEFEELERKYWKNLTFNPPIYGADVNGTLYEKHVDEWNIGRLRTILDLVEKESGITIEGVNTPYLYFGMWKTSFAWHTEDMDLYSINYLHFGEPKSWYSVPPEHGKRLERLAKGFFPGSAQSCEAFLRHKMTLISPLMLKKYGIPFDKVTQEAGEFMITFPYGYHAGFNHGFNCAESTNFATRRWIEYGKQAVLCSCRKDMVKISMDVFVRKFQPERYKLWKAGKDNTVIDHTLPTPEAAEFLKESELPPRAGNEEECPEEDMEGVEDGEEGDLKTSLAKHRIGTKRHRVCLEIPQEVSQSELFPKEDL
Protocol: (§1) To measure fluorescence polarization, a Perkin Elmer EnVision 2102 Multilabel plate reader equipped with FP-FITC optic module was used. Corning half-area, black, flat-bottom, polystyrene, 96-well plates (cat. #: 3993) were used for all FP studies. Auto-adjustment of focal height and gain was performed in the well containing 80 μL of 1 nM fluorophore 20, the recommended concentration of fluorescein for this plate reader.
(§2) The dissociation constant (Kd) for fluorophore 20 to GST-JMJD2A(1-420) was measured (See FIG. 8) by titrating 20 (1 nM) with purified JMJD2A using protocols reported by Rossi et al. in Nat. Protoc., 2011, 6(3), 365-87. Fluorescence intensity values in parallel (i.e., I11) and perpendicular (i.e., I⊥) planes for each well were measured after 2 h of incubation at room temperature. For each experimental measurement, the protein background was subtracted, and the polarization (P) was calculated using these corrected values of I11 and I⊥ from the equation: P=(I11−G·I⊥)/(I11+G·I⊥), where the G factor is derived from the instrument auto-adjustment step. […] The Kd for 20 and JHDM1A was determined as 30±5 nM in a similar fashion.

[4] = molecular target: T2, JHDM1A (Homo sapiens, UniProt Q9Y2K7); assay: Fluorescence polarization (FP) binding assay, JHDM1A; conditions: read-out: dissociation constant (Kd) to JHDM1A
T2 sequence (Q9Y2K7 1-1162): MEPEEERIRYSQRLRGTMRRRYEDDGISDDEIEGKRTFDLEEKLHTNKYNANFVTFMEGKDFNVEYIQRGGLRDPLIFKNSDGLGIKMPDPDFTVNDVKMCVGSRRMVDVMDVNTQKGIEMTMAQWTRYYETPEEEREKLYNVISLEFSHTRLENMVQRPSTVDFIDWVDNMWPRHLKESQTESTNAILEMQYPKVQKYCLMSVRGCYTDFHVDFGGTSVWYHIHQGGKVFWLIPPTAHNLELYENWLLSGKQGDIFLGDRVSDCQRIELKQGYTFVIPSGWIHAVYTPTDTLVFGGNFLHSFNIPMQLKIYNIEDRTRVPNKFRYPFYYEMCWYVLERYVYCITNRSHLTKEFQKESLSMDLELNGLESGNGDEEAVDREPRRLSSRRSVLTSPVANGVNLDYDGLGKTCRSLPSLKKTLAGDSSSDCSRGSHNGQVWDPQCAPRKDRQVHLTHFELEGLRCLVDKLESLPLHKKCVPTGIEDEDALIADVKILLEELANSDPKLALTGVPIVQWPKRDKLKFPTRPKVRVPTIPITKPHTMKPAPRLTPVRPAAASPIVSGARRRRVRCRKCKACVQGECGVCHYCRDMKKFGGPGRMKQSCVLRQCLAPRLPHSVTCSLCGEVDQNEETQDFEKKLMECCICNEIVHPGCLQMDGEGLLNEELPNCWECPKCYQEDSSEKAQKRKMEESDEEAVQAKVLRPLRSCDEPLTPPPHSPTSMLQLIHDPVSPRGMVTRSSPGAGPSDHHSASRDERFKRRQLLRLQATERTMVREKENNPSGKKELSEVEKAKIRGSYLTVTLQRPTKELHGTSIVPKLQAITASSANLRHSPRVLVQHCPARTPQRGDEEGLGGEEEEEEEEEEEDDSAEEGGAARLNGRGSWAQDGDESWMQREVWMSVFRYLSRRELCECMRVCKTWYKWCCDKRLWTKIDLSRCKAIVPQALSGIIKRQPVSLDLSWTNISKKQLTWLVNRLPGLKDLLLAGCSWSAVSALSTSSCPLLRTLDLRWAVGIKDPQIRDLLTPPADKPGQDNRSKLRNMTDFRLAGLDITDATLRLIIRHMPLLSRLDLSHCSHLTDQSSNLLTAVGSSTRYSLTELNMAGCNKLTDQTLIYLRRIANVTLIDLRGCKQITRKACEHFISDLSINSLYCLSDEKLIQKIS
Protocol: as §1, §2

| Compound | cellular HIF-1α levels / prolyl hydroxylase inhibition [1] | cellular activity in H3K4me3- and H3K9me3-immunostaining assays relative to methylstat [2] | also measured |
| --- | --- | --- | --- |
| COC(=O)CNC(=O)C(=O)OC [DMOG, dimethyl oxalylglycine, reference compound] | significantly increased cellular levels of HIF-1α |  |  |
| COC(=O)/C=C/C(=O)N(O)CCCC[N+](C)(C)Cc1ccc(COC(=O)Nc2cccc3ccccc23)cc1.[I-] [Compound 23f] |  | reduced its activity |  |
| NCc1ccc(CN(CCCCN(O)C(=O)/C=C/C(=O)O)C(=S)Nc2ccc(C3=C4C=CC(=O)C=C4Cc4cc(O)ccc43)c(C(=O)O)c2)cc1 [Compound 20] |  |  | Kd [3]: 175 ± 42 nM; Kd [4]: 30 ± 5 nM |
| deferoxamine mesylate salt [DFO, reference compound] | significantly increased cellular levels of HIF-1α |  |  |
| COC(=O)C(=O)N(O)CCCCNCc1ccc(COC(=O)Nc2cccc3ccccc23)cc1 [Compound 23a] |  | significantly decreased cellular activity |  |
